The experiment addresses T1, sodium channel (ENaC), canine bronchial epithelia (Canis lupus familiaris, UniProt A0A8I3MKE6+A0A8I3Q679+Q95165).
T1 construct: endogenous in cells; host or cells: primary canine bronchial epithelial cells cultured at air-liquid interface, mounted in Ussing chambers
T1 sequence (A0A8I3Q679 1-649): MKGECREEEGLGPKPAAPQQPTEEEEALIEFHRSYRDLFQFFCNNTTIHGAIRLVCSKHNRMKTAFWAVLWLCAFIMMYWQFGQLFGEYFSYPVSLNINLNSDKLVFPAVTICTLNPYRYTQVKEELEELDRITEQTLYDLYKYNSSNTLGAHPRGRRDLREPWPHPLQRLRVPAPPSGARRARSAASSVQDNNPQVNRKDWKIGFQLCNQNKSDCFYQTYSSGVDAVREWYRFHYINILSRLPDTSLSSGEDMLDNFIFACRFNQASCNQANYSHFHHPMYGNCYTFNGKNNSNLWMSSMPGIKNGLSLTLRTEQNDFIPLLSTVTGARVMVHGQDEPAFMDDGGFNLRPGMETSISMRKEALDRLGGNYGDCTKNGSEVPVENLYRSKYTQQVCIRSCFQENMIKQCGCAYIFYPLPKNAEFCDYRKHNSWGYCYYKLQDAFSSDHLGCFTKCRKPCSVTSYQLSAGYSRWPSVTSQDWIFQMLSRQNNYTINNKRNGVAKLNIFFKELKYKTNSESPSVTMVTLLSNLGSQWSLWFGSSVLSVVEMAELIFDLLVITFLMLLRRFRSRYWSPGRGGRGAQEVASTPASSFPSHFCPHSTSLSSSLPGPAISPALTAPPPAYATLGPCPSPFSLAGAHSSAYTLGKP
T1 sequence (Q95165 1-641): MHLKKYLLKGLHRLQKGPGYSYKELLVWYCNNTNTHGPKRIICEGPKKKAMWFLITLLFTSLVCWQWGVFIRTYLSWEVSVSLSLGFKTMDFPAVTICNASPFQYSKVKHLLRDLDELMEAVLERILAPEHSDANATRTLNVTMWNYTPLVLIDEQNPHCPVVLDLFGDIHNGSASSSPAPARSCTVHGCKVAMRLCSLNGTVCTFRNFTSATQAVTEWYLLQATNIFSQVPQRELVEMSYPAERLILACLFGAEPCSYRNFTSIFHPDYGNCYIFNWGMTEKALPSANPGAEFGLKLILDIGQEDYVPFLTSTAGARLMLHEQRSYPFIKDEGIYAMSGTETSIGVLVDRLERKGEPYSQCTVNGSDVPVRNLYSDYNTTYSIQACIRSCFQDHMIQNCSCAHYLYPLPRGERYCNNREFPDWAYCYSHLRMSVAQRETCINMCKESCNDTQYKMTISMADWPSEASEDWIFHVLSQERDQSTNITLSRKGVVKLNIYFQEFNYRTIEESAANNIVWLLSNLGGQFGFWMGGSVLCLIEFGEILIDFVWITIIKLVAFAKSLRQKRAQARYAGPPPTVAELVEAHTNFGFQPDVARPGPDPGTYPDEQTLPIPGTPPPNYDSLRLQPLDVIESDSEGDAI
T1 sequence (A0A8I3MKE6 1-646): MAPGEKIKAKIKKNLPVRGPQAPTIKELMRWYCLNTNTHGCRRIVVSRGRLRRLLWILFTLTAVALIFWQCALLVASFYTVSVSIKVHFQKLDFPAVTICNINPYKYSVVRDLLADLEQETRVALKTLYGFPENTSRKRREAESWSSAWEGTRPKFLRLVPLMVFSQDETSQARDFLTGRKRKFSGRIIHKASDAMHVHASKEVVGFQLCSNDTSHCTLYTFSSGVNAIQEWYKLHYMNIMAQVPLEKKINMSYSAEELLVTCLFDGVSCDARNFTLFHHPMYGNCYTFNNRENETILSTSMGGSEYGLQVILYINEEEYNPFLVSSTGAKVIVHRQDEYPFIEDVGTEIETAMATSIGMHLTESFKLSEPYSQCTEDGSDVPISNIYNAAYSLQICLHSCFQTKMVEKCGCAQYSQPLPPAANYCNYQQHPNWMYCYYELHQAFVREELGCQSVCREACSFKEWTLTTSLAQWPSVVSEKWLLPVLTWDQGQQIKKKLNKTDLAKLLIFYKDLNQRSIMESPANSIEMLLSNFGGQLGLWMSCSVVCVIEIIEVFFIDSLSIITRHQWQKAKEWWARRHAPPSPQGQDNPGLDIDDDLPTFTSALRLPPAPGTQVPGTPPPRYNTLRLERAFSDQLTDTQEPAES
As to the kind of experiment: In vitro measure of sodium channel blocking activity: inhibition of short circuit current (ISC) in airway epithelial monolayers in Ussing chambers. It is filed as cell-based. Conditions: mean of N runs; for Fold Amiloride** (PSA 4022 = 100) Mean: relative potency for PSA 4022 = 100 using EC50 from PSA 4022 in same run. On the procedure: One assay used to assess mechanism of action and/or potency of the compounds of the present invention involves the determination of lumenal drug inhibition of airway epithelial sodium currents measured under short circuit current (ISC) using airway epithelial monolayers mounted in Ussing chambers. Cells obtained from freshly excised human, dog, sheep or rodent airways are seeded onto porous 0.4 micron Snapwell™ Inserts (CoStar), cultured at air-liquid interface (ALI) conditions in hormonally defined media, and assayed for sodium transport activity (ISC) while bathed in Krebs Bicarbonate Ringer (KBR) in Using chambers. All test drug additions are to the lumenal bath with half-log dose addition protocols (from 1×10^−11 M to 3×10^−5M), and the cumulative change in ISC (inhibition) recorded. All drugs are prepared in dimethyl sulfoxide as stock solutions at a concentration of 1×10^−2 M and stored at −20° C. […] After the maximal concentration (5×10^−5 M) is administered, the lumenal bath is exchanged three times with fresh drug-free KBR solution, and the resultant ISC measured after each wash for approximately 5 minutes in duration. Reversibility is defined as the percent return to the baseline value for sodium current after the third wash. All data from the voltage clamps are collected via a computer interface and analyzed off-line.
Dose-effect relationships for all compounds are considered and analyzed by the Prism 3.0 program.
PSA 4022 was also tested in each assay as a positive control.

Molecules are shown by their SMILES. Structures can show the parent of a compound that is named as a salt.

For `N=C(NCCCCc1ccc(OC[C@H](N)C(=O)O)cc1)NC(=O)c1nc(Cl)c(N)nc1N` (stereo in doubt) [PSA 10941, 2-amino-3-(4-{4-[N′-(3,5-diamino-6-chloropyrazine-2-carbonyl)-guanidino]butyl}phenoxy)propionic acid], it took 32.1 nM to reach a half-maximal effect (EC50) and the “Fold Amiloride** (PSA 4022 = 100) Mean” value stood at 30.0. `CS(=O)(=O)N(c1ccc(CCCCNC(=N)NC(=O)c2nc(Cl)c(N)nc2N)cc1)S(C)(=O)=O` [PSA 10316, N-(3,5-Diamino-6-chloropyrazine-2-carbonyl)-N′-[4-(4-bis(methanesulfonyl)aminophenyl)butyl]guanidine]: the EC50 is 9.56 nM and the “Fold Amiloride** (PSA 4022 = 100) Mean” value was determined as 132.

Take `COC(=O)[C@@H](N)COc1ccc(CCCCNC(=N)NC(=O)c2nc(Cl)c(N)nc2N)cc1` [PSA 11041, 2-amino-3-(4-{4-[N′-(3,5-diamino-6-chloropyrazine-2-carbonyl)-guanidino]butyl}phenoxy)propionic acid methyl ester]: the EC50 stood at 32 nM and the “Fold Amiloride** (PSA 4022 = 100) Mean” value was 38.6. For `C[N+](C)(C)CCOc1ccc(CCCCNC(=N)NC(=O)c2nc(Cl)c(N)nc2N)cc1.Cl.[Cl-]` [PSA 11223, N-(3,5-diamino-6-chloropyrazine-2-carbonyl)-N′-{4-[4-(2-chlorotrimethylammonium)ethoxyphenyl]butyl}guanidine hydrochloride], the EC50 was 14.7 nM and the “Fold Amiloride** (PSA 4022 = 100) Mean” value is listed as 79.6. For the compound `N=C(NCCCCc1ccc(C(=O)NCCN)cc1)NC(=O)c1nc(Cl)c(N)nc1N` [PSA 11698, 4-{4-[N-(3,5-diamino-6-chloropyrazine-2-carbonyl)guanidino]butyl}-N-(2-aminoethyl)benzamide hydrochloride], the EC50 amounted to 5.82 nM and the “Fold Amiloride** (PSA 4022 = 100) Mean” value is listed as 136. On to `Cl.N=C(N)NCCNC(=O)c1ccc(CCCCNC(=N)NC(=O)c2nc(Cl)c(N)nc2N)cc1` [PSA 11834, 4-{4-[N′-(3,5-diamino-6-chloropyrazine-2-carbonyl)guanidino]butyl}-N-(2-guanidinoethyl)benzamide hydrochloride], for which the EC50 turned out to be 3.68 nM and the “Fold Amiloride** (PSA 4022 = 100) Mean” value is listed as 276. With `Cl.N=C(N)NCC(O)COc1ccc(CCCCNC(=N)NC(=O)c2nc(Cl)c(N)nc2N)cc1` (stereo not drawn) [PSA 11975, N-(3,5-diamino-6-chloropyrazine-2-carbonyl)-N′-{4-[4-(3-guanidino-2-hydroxypropoxy)phenyl]butyl}guanidine hydrochloride], the EC50 turned out to be 4.85 nM and the “Fold Amiloride** (PSA 4022 = 100) Mean” value is given as 287. Turning to `N=C(NCCCCc1ccc(NC(=O)CCN)cc1)NC(=O)c1nc(Cl)c(N)nc1N` [PSA 14568, dihydrochloride], the EC50 came to 3.92 nM and the “Fold Amiloride** (PSA 4022 = 100) Mean” value was 131. `N=C(N)NCCC(=O)Nc1ccc(CCCCNC(=N)NC(=O)c2nc(Cl)c(N)nc2N)cc1` [PSA 14984, N-(4-{4-[N′-(3,5-diamino-6-chloropyrazine-2-carbonyl)guanidino]-butyl}phenyl)-3-guanidinopropionamide dihydrochloride]: the EC50 was 3.27 nM and the “Fold Amiloride** (PSA 4022 = 100) Mean” value was 268. With `N=C(NCCCCc1ccc(NCC(N)=O)cc1)NC(=O)c1nc(Cl)c(N)nc1N` [PSA 15104, 2-(4-{4-[N′-(3,5-diamino-6-chloropyrazine-2-carbonyl)guanidino]-butyl}phenylamino)acetamide dihydrochloride], the EC50 was 19.1 nM and the “Fold Amiloride** (PSA 4022 = 100) Mean” value worked out at 26.4. In the same order, the values of `N=C(NCCCCc1ccc(N(CCN(C[C@H](O)CO)C[C@H](O)CO)C[C@H](O)CO)cc1)NC(=O)c1nc(Cl)c(N)nc1N` [PSA 16311, N-(4{4-[{2-[N,N-bis-((2S)-2,3-dihydroxypropyl)amino]ethyl}-N-((2S)-2,3-dihydroxypropyl)amino]phenyl}butyl)-N′-(3,5-diamino-6-chloropyrazine-2-carbonyl)guanidine] are 33.2 nM and 25.6. `N=C(NCCCCc1ccc(NCCN)cc1)NC(=O)c1nc(Cl)c(N)nc1N` [PSA 16436, N-{4-[4-(2-aminoethylamino)phenyl]butyl}-N′-(3,5-diamino-6-chloropyrazine-2-carbonyl)guanidine]: it took 15.4 nM to reach a half-maximal effect (EC50) and the “Fold Amiloride** (PSA 4022 = 100) Mean” value is given as 35.6. In the same order, the values of `N=C(NCCCCc1ccc(NCCNC[C@@H](O)CO)cc1)NC(=O)c1nc(Cl)c(N)nc1N` [PSA 16721, N-(4-{4-[{2-[((2R)-2,3-dihydroxypropyl)amino]ethylamino}phenyl)butyl-N′-(3,5-diamino-6-chloropyrazine-2-carbonyl)guanidinetrihydrochloride] are 25.4 nM and 44.7. In the same order, the values of `N=C(NCCCCc1ccc(NC[C@@H](O)CO)cc1)NC(=O)c1nc(Cl)c(N)nc1N` [PSA 16722, N-(3,5-diamino-6-chloropyrazine-2-carbonyl)-N′-{4-[4-((2R)-2,3-dihydroxypropylamino)phenyl]butyl}guanidine] are 22.8 nM and 50.5. For `N=C(NCCCCc1ccc(OCC(=O)N(CCO)CCO)cc1)NC(=O)c1nc(Cl)c(N)nc1N` [PSA 16826, 2-(4-{4-[N′-(3,5-diamino-6-chloropyrazine-2-carbonyl)guanidino]-butyl}phenoxy)-N,N-bis-(2-hydroxyethyl)acetamide], the EC50 stood at 12.7 nM and the “Fold Amiloride** (PSA 4022 = 100) Mean” value turned out to be 64.9. The like results for `N=C(NCCCCc1ccc(NCCN(C[C@H](O)[C@H](O)CO)C[C@H](O)[C@H](O)CO)cc1)NC(=O)c1nc(Cl)c(N)nc1N` [PSA 17218, N-[4-(4-{2-[bis-((2S,3R)-2,3,4-trihydroxybutyl)amino]ethylamino}phenyl)butyl]-N′-(3,5-diamino-6-chloropyrazine-2-carbonyl)guanidine trihydrochloride] were, in that order, 32.4 nM and 24.7.

On to `N=C(N)NCCNc1ccc(CCCCNC(=N)NC(=O)c2nc(Cl)c(N)nc2N)cc1` [PSA 17339, N-(3,5-diamino-6-chloropyrazine-2-carbonyl)-N′-{4-[(2-guanidinoethylamino)phenyl]butyl}guanidine trihydrochloride], for which the EC50 came out at 6.83 nM. This lies in the single-digit nanomolar range.
